# Article PMC8669712, “G Protein-Coupled Receptor GPR35 Suppresses Lipid Accumulation in Hepatocytes” (ACS Pharmacology & Translational Science, 2021)
# Legend:
# HepG2 cells [1] = assay: Label-free cellular impedance assay (xCELLigence) in HepG2 cells; type: cell-based, human; conditions: HepG2 cells; for impedance response of antagonist added alone: 1 × 10^–5 M; for impedance response to lodoxamide on co-addition of antagonist: antagonist 1 × 10^–5 M, lodoxamide 1 × 10^–8 M
# Description: (§1) HepG2 cells were seeded onto xCELLigence E plates (2 × 10^4 cells/well) and incubated for 24 h at 37 °C. To evaluate GPR35 activation and its downstream G protein signaling, HepG2 cells or primary mouse hepatocytes were exposed to GPR35 antagonists or G protein inhibitors 1 h (overnight for Pertussis toxin) prior to GPR35 agonist stimulation. After the addition of GPR35 agonist or vehicle control, the impedance (represented as “cell index”) was recorded every 30 s over a 2 h period using xCELLigence RTCA (Agilent). Each experiment was repeated at least three times.
# [2] = system: primary mouse hepatocytes; parameters: method as in Nam et al. 37; conditions: against 1 × 10^–6 M lodoxamide; ref Nam et al. 37; read-out: IC50 to block mouse GPR35 in primary hepatocytes; cited from earlier work
# HepG2 cells [3] = assay: Oil Red O staining of LXR (T0901317)-induced lipid accumulation in HepG2 cells; type: cell-based, human; conditions: T0901317/lodoxamide, concentration-dependent
# Description: Human hepatocellular carcinoma HepG2 cells were grown in Minimum Essential Medium (MEM) supplemented with 10% fetal bovine serum (FBS), 2 mM L-glutamine, 1× non-essential amino acid, 1 mM sodium pyruvate, and 1× penicillin/streptomycin. Materials for cell culture were all from Sigma-Aldrich (St. Louis, MO) or Thermo Fisher Scientific (Waltham, MA). Cells were incubated in a humidified CO2 incubator at 37 °C. […] Cells were seeded onto a 12-well plate (1 × 10^5 cells/well) for 24 h prior to drug treatment. […] Lipid accumulation was measured by Oil Red O staining.
# [4] = system: mouse orthologue of GPR35; parameters: method as in PMID 22967846, PMID 30601679; conditions: cited from earlier work
# human isoforms of GPR35 = biological target: human isoforms of GPR35; parameters: method as in PMID 23888932; conditions: read-out: Ki from competition studies against a [3H]radiolabeled agonist; cited from earlier work
# [5] = system: hepatocytes from hGPR35a-HA-expressing mice; assay: Label-free cellular impedance assay in hepatocytes from hGPR35a-HA-expressing mice; type: cell-based, mouse
# [6] = system: clone 27 HepG2 cells transfected with human GPR35a; assay: Cellular impedance in clone 27 cells transiently transfected with human GPR35a; type: cell-based; conditions: ML-145 1 × 10^–5 M, lodoxamide 1 × 10^–8 M
# Description: Briefly, CRISPR KO cells were transiently transfected 24 h with the human GPR35a expression vector using LipofectAMINE 3000 reagent, according to the manufacturer’s instructions. […] Alternatively, after 24 h transfection, cells were seeded onto a 12-well plate (1 × 10^5 cells/well) for 24 h at 37 °C. Then, cells were incubated with T0901317 and/or GPR35 agonists (in MEM containing 5% FBS) for 72 h. After the drug treatment, cells were stained with Oil Red O to examine the levels of lipid accumulation. Each experiment was repeated at least three times.
# as §1
# [7] = system: hepatocytes from hGPR35a-HA-expressing mice; assay: Oil Red O lipid accumulation in hepatocytes from hGPR35a-HA-expressing mice; type: cell-based, mouse; conditions: hepatocytes from hGPR35a-HA-expressing mice
# Description: All mice were bred as WT or homozygous onto a C57BL/6N background. Animals were cared for in accordance with national guidelines on animal experimentation. All animal experiments were conducted under a home office license held by the authors. WT, humanized GPR35a, or KO male mice at 3–4 months of age were used in this study. These mice were fed ad libitum with a standard mouse chow diet. Briefly, mouse primary hepatocytes were isolated using a two-step collagenase perfusion technique.[45] Twelve-well plates or xCELLigence E plates were coated with rat tail collagen I solution (Thermo Fisher Scientific) overnight at 37 °C and washed with PBS. Isolated primary hepatocytes were seeded onto 12-well plates (8 × 10^4 cells/well) or xCELLigence E plates (2 × 10^4 cells/well) in Wiliam’s E medium (Thermo Fisher Scientific) supplemented with 10% fetal bovine serum (FBS) and 1× penicillin/streptomycin. Cells were maintained for 7 days with a fresh medium change every other day. […] Human GPR35 activation was examined using xCELLigence RTCA assay. To access the impact of GPR35 agonists on the lipid accumulation, WT and humanized GPR35 hepatocytes were incubated with T0901317 and/or GPR35 agonists/antagonists, as indicated (in DMEM medium containing 5% FBS and 1.5% BSA) for 48 h. Alternatively, GPR35 KO hepatocytes were incubated with drugs, as indicated for 5 days. In the T0901317 pretreatment model, human GPR35 hepatocytes were stimulated with T0901317 for 2 days and then further treated with lodoxamide for a further 3 days. After each drug treatment, hepatocytes were stained with Oil Red O and quantified as described. Each experiment was repeated at least three times.
# Lipid accumulation was measured by Oil Red O staining. A working solution of Oil Red O was prepared, as described with modification.[46] After drug treatment, cells were washed with PBS and fixed with formalin solution for 1 h at 4 °C. Then, cells were stained with Oil Red O working solution for 10 min at room temperature. After PBS washing, Oil Red O was extracted from cells using 150 μl of isopropanol and OD510 nm measured. After the lipid extraction, cells were further soaked in PBS overnight at 4 °C. These cells were then stained with Hoechst 33342 (1 μg/mL) and the fluorescence intensity of Hoechst (represents the DNA content in cells) was measured using a CLARIOstar plate reader (BMG LABTECH). Oil Red O accumulation was corrected for differences in DNA content and expressed as relative absorbency, taking the control condition (treated with vehicle only) as 1.
SMILES,impedance response of antagonist added alone (HepG2 cells [1]),impedance response to lodoxamide on co-addition of antagonist (HepG2 cells [1]),IC50 [2] [nM],antagonist co-addition: effect of lodoxamide on LXR-induced lipid accumulation (HepG2 cells [3]),affinity at the mouse orthologue of GPR35 [4],Ki (human isoforms of GPR35) [nM],"effect of co-addition of antagonist on the lodoxamide impedance response ([5]; ML-145 1 × 10^–5 M, lodoxamide 1 × 10^–7 M)",impedance effect of antagonist alone versus DMSO-containing vehicle ([5]; hepatocytes from hGPR35a-HA-expressing mice),effect of co-addition of antagonist on the lodoxamide impedance signal in clone 27 cells transfected with human GPR35a [6],effect of antagonist added alone on lipid content [7],effect of antagonist on lodoxamide suppression of lipid accumulation ([7]; T0901317/lodoxamide 5 × 10^–6 M)
"COC(=O)c1cnn(-c2ccc(F)cc2F)c1C=NNC(=S)NC(C)(C)C [CID-2745687, 1-(2,4-difluorophenyl)-5-[[2-[[(1,1-dimethylehyl)amino]thioxomethyl]hydrazinylidene]methyl]-1H-pyrazole-4-carboxylic acid methyl ester]",neither antagonist generated a response distinct from the vehicle,absent,98,prevented the effect of lodoxamide on lipid accumulation,neither of these ligands has measurable affinity,42,,,,,
"CC(/C=C1\SC(=S)N(CCCC(=O)Nc2ccc(C(=O)O)c(O)c2)C1=O)=C\c1ccccc1 [ML-145, 2-hydroxy-4-[4-(5Z)-5-[(E)-2-methyl-3-phenylprop-2-enylidene]-4-oxo-2-sulfanylidene-1,3-thiazolidin-3-yl]butanoylaminobenzoic acid]",neither antagonist generated a response distinct from the vehicle,absent,,prevented the effect of lodoxamide on lipid accumulation,neither of these ligands has measurable affinity,8.7,prevented,no separate effect,blocked,without effect when added alone,blocked the effect of lodoxamide in a concentration-dependent manner
